Results: patent US20240408093A1, “HETEROBIFUNCTIONAL COMPOUNDS AND THEIR USE IN TREATING DISEASE” (HALDA THERAPEUTICS OPCO, INC., priority 2022, published 2024)
Where two headings read alike, the source gives them in different places.

How the values were obtained:
CCNK [1] = target: T1, CCNK (Homo sapiens, UniProt O75909+Q16531+Q9NYV4); test: CCNK HiBiT degradation assay; format: cell-based; conditions: HEK293 LgBiT/CCNK HiBiT cells, 6 hours
T1 construct: expressed in transfected cells; host or cells: HEK293 LgBiT cells (Promega), lentiviral transduction, puromycin selection
Method: HEK293 LgBiT cells (Promega) were cultured in DMEM (Gibco 11995), supplemented with 10% Heat-inactivated FBS (Gibco A38400-01) and 1% Penicillin/Streptomycin (Gibco 15140-122) and 200 μg/ml Hygromycin B (Gibco 10-687-010) at 37° C. with 5% CO2 in a humidified tissue culture incubator. Cells were made stable for CCNK fused to a C-terminal HiBiT peptide by lentiviral transduction, followed by selection with 1 μg/ml Puromycin Dihydrochloride (Thermo A1113803). HEK293 LgBiT/CCNK HiBiT cells were seeded at 3000 cells/well in 384-well, tissue culture-treated white plates (Perkin Elmer 6007680) in 25 μL media lacking selection for 18-24 hours. Plates were spun at 300 g for 30 seconds and stored in the incubator overnight. After 24 hours, compounds were titrated in DMSO and added to media supplemented with Endurazine Substrate (Promega N2570). A 25 ul aliquot of 2× compound/endurazine in media were then added to the 384-well microplate with seeded cells. (Endurazine was used at a final concentration of 0.5×). The plate was spun at 300 g for 30 seconds and stored in the incubator. After 6 hours the plate was read on Envision MultiMode Plate Reader 2105 (Perkin Elmer) to measure luminescence signal. Data were plotted in Prism (Graphpad) and the concentration of compound at which 50% CCNK degradation occurs (DC50) was calculated.

CCNK [2] = test: Payload release assay (DC50 readout), CCNK degradation in the presence of recombinant target protein; format: cell-based
Method: Exemplary compounds were tested for ability to cause degradation of CCNK or GSPT1 in the presence of recombinant target protein.
HEK293 LgBiT/GSPT1 HiBiT CRISPR Knock-in cells (Promega) were cultured in DMEM (Gibco 11995), supplemented with 10% Heat-inactivated FBS (Gibco A38400-01) and 1% Penicillin/Streptomycin (Gibco 15140-122) and 200 Vg/ml Hygromycin B (Gibco 10-687-010) at 37° C. with 5% CO2 in a humidified tissue culture incubator. HEK293 LgBiT/CCNK HiBiT cells (in-house, described above) were cultured in DMEM (Gibco 11995), supplemented with 10% Heat-inactivated FBS (Gibco A38400-01) and 1% Penicillin/Streptomycin (Gibco 15140-122) 200 Vg/ml Hygromycin B (Gibco 10-687-010), and 1 Vg/ml Puromycin Dihydrochloride (Thermo A1113803) at 37° C. with 5% CO2 in a humidified tissue culture incubator. Cells were seeded (1000 cells/well for HEK293 LgBiT/GSPT1 HiBiT cells or 3000 cells/well for HEK293 LgBiT/CCNK HiBiT cells) 384-well, tissue culture-treated white plates (Perkin Elmer 6007680) in 10 μL media lacking selection for 18-24 hours. Plates were spun at 300 g for 30 seconds and stored in the incubator overnight. After 24 hours, a 5 μL aliquot of recombinant target protein (final concentration of either 5 μM KRAS amino acids 1-169, C51S, C80L, C118S, G12C or 3 μM EGFR amino acids 696-1022 or 3 μM EGFR amino acids 696-1022, T790M, L858R) was added to wells, followed immediately by a 5 μL aliquot of 4× compound-containing medium supplemented with Endurazine Substrate (Promega N2570) was added in each well, at a final top concentration of 10 μM test compound and 0.5× Endurazine, with 4-fold dilutions, using DMSO alone as a negative control. Plates were then spun at 300×g for 3 minutes again and cultured at 37° C. with 5% CO2. After 6 hours the plate was read on Envision MultiMode Plate Reader 2105 (Perkin Elmer) to measure luminescence signal. Data was normalized to DMSO treated cell wells. A four-parameter non-linear regression curve fit was applied to dose-response data in Prism to determine the half maximal growth inhibitory concentration (GI50) of each compound.

[3] = 0 μM recombinant EGFR T790M L858R, II-series and V-4 (CCNK readout inferred), read-out: DC50 at 0 μM EGFR T790M L858R
[4] = 0 μM recombinant EGFR WT, II-series and V-4 (CCNK readout inferred), read-out: DC50 at 0 μM EGFR WT
[5] = 3 μM recombinant EGFR T790M L858R, II-series and V-4 (CCNK readout inferred), read-out: DC50 at 3 μM EGFR T790M L858R
[6] = 3 μM recombinant EGFR WT, II-series and V-4 (CCNK readout inferred), read-out: DC50 at 3 μM EGFR WT
[7] = 0 μM recombinant KRAS G12C, II-series compounds (CCNK readout inferred), read-out: DC50 at 0 μM KRAS G12C
[8] = 5 μM recombinant KRAS G12C, II-series compounds (CCNK readout inferred), read-out: DC50 at 5 μM KRAS G12C

T1 sequence (O75909 whole entry, species assumed): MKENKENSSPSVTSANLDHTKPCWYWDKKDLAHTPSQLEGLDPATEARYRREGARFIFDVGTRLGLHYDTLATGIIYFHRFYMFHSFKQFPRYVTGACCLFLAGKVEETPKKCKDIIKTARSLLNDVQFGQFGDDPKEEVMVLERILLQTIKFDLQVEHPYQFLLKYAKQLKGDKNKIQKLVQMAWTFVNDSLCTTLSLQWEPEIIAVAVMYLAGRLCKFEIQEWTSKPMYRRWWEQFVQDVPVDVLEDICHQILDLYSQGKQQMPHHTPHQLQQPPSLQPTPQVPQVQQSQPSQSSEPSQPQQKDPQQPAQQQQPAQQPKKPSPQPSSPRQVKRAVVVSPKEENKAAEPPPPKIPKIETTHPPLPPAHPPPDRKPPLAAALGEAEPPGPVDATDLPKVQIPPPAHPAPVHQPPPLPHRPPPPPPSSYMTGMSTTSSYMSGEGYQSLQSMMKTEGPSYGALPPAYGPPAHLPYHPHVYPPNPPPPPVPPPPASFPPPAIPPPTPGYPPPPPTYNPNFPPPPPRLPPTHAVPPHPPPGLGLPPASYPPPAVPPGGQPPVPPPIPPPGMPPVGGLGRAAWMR
T1 sequence (Q9NYV4 whole entry, species assumed): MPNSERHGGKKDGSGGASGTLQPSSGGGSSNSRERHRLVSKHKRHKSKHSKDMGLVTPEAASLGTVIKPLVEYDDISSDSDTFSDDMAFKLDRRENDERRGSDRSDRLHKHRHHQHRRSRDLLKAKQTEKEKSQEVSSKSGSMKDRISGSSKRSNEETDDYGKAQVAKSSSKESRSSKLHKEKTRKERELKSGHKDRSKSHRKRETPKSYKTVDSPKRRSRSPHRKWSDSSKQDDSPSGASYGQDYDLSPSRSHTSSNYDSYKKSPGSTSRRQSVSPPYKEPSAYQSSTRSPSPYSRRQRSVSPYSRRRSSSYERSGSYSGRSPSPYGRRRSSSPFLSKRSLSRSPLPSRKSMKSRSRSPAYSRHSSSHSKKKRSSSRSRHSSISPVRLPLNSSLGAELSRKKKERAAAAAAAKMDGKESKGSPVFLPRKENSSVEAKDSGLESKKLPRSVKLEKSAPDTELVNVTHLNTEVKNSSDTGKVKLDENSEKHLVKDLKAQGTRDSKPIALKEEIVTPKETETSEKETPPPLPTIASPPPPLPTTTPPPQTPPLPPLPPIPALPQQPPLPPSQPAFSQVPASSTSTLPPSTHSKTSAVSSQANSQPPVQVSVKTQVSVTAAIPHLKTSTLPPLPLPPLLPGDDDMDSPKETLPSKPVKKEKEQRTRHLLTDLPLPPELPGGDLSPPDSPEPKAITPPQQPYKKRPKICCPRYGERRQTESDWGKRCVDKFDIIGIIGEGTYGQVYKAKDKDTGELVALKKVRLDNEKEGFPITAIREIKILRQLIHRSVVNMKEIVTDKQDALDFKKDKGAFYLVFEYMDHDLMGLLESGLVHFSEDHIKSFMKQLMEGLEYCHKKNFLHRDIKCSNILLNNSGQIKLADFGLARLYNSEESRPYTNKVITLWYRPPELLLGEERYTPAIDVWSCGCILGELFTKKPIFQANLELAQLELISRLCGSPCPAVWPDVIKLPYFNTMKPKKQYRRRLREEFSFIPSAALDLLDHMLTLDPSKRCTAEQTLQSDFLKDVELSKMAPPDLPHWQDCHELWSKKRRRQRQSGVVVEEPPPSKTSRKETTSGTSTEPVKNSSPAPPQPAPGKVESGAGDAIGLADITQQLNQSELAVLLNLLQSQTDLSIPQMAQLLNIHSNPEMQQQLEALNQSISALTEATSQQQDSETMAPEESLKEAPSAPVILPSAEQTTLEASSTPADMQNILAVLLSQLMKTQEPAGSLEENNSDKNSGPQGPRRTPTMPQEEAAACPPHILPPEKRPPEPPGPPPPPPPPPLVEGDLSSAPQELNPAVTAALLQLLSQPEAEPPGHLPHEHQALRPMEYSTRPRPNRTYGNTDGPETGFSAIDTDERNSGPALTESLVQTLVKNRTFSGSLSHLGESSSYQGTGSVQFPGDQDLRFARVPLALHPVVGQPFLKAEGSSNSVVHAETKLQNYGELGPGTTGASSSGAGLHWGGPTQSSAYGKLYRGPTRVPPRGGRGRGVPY
T1 sequence (Q16531 whole entry, species assumed): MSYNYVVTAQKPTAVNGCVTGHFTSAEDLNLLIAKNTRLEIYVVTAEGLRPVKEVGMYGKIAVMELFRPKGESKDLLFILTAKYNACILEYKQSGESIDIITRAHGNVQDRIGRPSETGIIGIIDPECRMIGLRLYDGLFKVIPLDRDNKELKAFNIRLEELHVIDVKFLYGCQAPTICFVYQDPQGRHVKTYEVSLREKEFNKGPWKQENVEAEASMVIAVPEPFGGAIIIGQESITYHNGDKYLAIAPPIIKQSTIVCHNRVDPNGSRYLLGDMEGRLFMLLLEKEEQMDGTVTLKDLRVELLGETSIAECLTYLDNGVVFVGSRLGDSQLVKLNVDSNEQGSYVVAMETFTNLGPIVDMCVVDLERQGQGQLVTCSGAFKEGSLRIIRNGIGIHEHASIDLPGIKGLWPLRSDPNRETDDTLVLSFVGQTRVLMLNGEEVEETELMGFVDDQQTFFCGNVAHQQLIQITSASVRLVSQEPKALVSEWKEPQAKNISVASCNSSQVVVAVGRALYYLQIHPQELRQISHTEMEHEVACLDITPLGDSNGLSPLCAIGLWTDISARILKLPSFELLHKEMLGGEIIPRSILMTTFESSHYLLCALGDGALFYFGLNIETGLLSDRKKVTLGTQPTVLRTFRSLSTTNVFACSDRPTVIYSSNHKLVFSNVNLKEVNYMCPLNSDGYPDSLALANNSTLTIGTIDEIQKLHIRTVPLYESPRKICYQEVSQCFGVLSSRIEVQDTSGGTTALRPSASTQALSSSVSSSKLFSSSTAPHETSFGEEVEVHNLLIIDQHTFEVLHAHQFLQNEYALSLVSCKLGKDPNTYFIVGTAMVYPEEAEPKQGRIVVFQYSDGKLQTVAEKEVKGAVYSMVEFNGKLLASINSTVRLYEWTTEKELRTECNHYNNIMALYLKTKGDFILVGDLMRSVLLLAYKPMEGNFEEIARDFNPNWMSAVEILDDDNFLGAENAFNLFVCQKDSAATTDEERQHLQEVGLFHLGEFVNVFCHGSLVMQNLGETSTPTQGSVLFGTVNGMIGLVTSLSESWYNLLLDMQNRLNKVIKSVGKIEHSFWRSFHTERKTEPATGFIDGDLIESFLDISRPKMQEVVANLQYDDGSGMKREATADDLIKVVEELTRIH

SMILES	DC50 (CCNK [1])	DC50 (CCNK [2]; [3])	DC50 (CCNK [2]; [4])	DC50 (CCNK [2]; [5])	DC50 (CCNK [2]; [6])	DC50 (CCNK [2]; [7])	DC50 (CCNK [2]; [8])
C=C(COC(=O)N1CCN(c2nc(NCc3nc4cc(C)ccc4[nH]3)n3ncc(Br)c3n2)CC1)C(=O)N1C[C@H](COc2nc(Nc3cnn(C)c3)nc3[nH]cc(Cl)c23)[C@@H](OC)C1 [II-185]	< 250 nM	250 to 5000 nM	250 to 5000 nM	< 250 nM	< 250 nM		
C=C(COc1cc(-c2ccccn2)ccc1CNc1nc(N[C@H](CC)CO)nc2c1ncn2C(C)C)C(=O)N[C@@H]1CN(c2nc(Nc3cn(C)nc3OC)c3ncn(C)c3n2)C[C@H]1F [II-183]		< 250 nM	< 250 nM				
C=C(CN1CCN(c2nc(NCc3nc4cc(C)ccc4[nH]3)n3ncc(Br)c3n2)CC1)C(=O)Nc1cc(Nc2nccc(-c3cn(C)c4ccccc34)n2)c(OC)cc1N(C)CCN(C)C [II-188]	< 250 nM	< 250 nM	< 250 nM		> 10000 nM		
C=C(CN1CCN(c2nc(NCc3nc4cc(C)ccc4[nH]3)n3ncc(Br)c3n2)CC1)C(=O)Nc1cccc(-c2cccc3cnc(Nc4ccc(N5CCN(CCO)CC5)c(F)c4F)nc23)c1 [II-191]		250 to 5000 nM	5000 to 10000 nM				
C=C(COC(=O)n1c(CNc2nc(N3CCNCC3)nc3c(Br)cnn23)nc2cc(C)ccc21)C(=O)N1C[C@H](COc2nc(Nc3cnn(C)c3)nc3[nH]cc(Cl)c23)[C@@H](OC)C1 [Compound V-4]	< 250 nM	< 250 nM	< 250 nM	< 250 nM	< 250 nM		
C=C(COc1cc(-c2ccccn2)ccc1CNc1nc(N[C@H](CC)CO)nc2c1ncn2C(C)C)C(=O)N1CCN(c2nc(OC[C@@H]3CCCN3C)nc3c2CCN(c2cccc4cccc(Cl)c24)C3)C[C@@H]1CC#N [II-186]	250 to 5000 nM					250 to 5000 nM	< 250 nM
C=C(CN1CCN(c2nc(NCc3nc4cc(C)ccc4[nH]3)n3ncc(Br)c3n2)CC1)C(=O)N1CCN(c2nc(OC[C@@H]3CCCN3C)nc3c2CCN(c2cccc4cccc(Cl)c24)C3)C[C@@H]1CC#N [II-190]	< 250 nM					< 250 nM	< 250 nM
